Legend:
[1] = target: benzodiazepine receptor of rat brains; experiment: Radioligand receptor binding assay ([3H]-flumazenil competitive binding); conditions: for Ki: [3H]-flumazenil competitive binding; for Specific binding of [3H]flumazenil: mean ± SEM, n=3; for IC50: reduction of specific binding of [3H]-flumazenil by 50 %, triplicates, 30 °C, 35 min
Experimental: All of the binding assays were performed in triplicates in a total volume of 500 µL at 30 °C for 35 min (Ahmadi et al., 2013[1]).
Kd and Bmax in radioligand binding assay were calculated by non-linear regression analysis of the saturation and competitive curve data (Program Prism, Graph Pad, San Diego, CA). The IC50s of the novel compounds in binding studies were determined using […]. […] In PTZ and MES tests, the data were presented as a mean with 95% confidence intervals. In the rest of the pharmacological evaluations, one-way ANOVA with Tukey's HSD post-hoc test was used. All the data were presented as mean ± SEM and P<0.05 was considered statistically significant.

| Structure (SMILES) | Ki [1] | Specific binding of [3H]flumazenil ([1]; log[L] -7.0) | Specific binding of [3H]flumazenil ([1]; log[L] -8.0) | Specific binding of [3H]flumazenil ([1]; log[L] -8.5) | Specific binding of [3H]flumazenil ([1]; log[L] -9.0) | Specific binding of [3H]flumazenil ([1]; log[L] -9.5) | Specific binding of [3H]flumazenil ([1]; log[L] -10.0) | Specific binding of [3H]flumazenil ([1]; log[L] -11.0) | IC50 [1] | melting point |
| --- | --- | --- | --- | --- | --- | --- | --- | --- | --- | --- |
| Cc1ccnc(NC(=O)c2nnc(-c3ccc(Cl)cc3Oc3ccccc3)o2)c1 [6d, 5-(4-chloro-2-phenoxyphenyl)-N-(4-methylpyridin-2-yl)-1,3,4-oxadiazole-2-carboxamide] | 0.88 nM | 0.3000±0.0059 cpm | 0.3100±0.0102 cpm | 0.3767±0.0090 cpm | 0.4467±0.0207 cpm | 0.5367±0.0122 cpm | 0.5700±0.0156 cpm | 0.5733±0.0207 cpm | 1.44 ± 0.09 nM | 188.2 to 189.1 °C |
| O=C(NN1CCOCC1)c1nnc(-c2ccc(Cl)cc2Oc2ccccc2)o1 [6e, 5-(4-chloro-2-phenoxyphenyl)-N-morpholino-1,3,4-oxadiazole-2-carboxamide] | 0.95 nM | 0.2900±0.0059 cpm | 0.3067±0.0090 cpm | 0.3600±0.0060 cpm | 0.5867±0.0090 cpm | 0.6033±0.0189 cpm | 0.6667±0.0148 cpm | 0.6967±0.0148 cpm | 1.55 ± 0.1 nM | 159 to 161 °C |
| O=C(NC1CCCCC1)c1nnc(-c2ccc(Cl)cc2Oc2ccccc2)o1 [6f, 5-(4-chloro-2-phenoxyphenyl)-N-cyclohexyl-1,3,4-oxadiazole-2-carboxamide] | 1.53 nM | 0.2133±0.0272 cpm | 0.3533±0.0189 cpm | 0.4000±0.0118 cpm | 0.4533±0.0148 cpm | 0.5500±0.0156 cpm | 0.6133±0.0296 cpm | 0.5933±0.0207 cpm | 2.51 ± 0.13 nM | 132 to 133 °C |

Source: article PMC10043390, “Novel 2-substituted-5-(4-chloro-2-phenoxy)phenyl-1,3,4-oxadiazole derivatives, ligands of GABAA/benzodiazepine receptor complex: Design, synthesis, radioligand binding assay, and pharmacological evaluation” (EXCLI Journal, 2023)
